Source: ChEMBL document CHEMBL4680318, “(S)-Erypoegin K, an isoflavone isolated from Erythrina poeppigiana, is a novel inhibitor of topoisomerase IIα: Induction of G2 phase arrest in human gastric cancer cells” (Bioorg Med Chem, 2021)
The source made the active and inactive calls. The calls are words filed in the database; no cut-off is given here.

Experiments:
NCI-H460 = assay: Growth inhibition of human NCI-H460 cells measured after 48 hrs by sulforhodamine B assay; format: functional
SNB-78 = assay: Growth inhibition of human SNB-78 cells measured after 48 hrs by sulforhodamine B assay; format: functional
[1] = Growth inhibition of human BSY1 cells measured after 48 hrs by sulforhodamine B assay; format: functional; conditions: BSY-1
PC-3 = assay: Growth inhibition of human PC-3 cells measured after 48 hrs by sulforhodamine B assay; format: functional
ACHN = assay: Growth inhibition of human ACHN cells measured after 48 hrs by sulforhodamine B assay; format: functional
SF-295 = assay: Growth inhibition of human SF-295 cells measured after 48 hrs by sulforhodamine B assay; format: functional
MKN-28 = assay: Growth inhibition of human MKN-28 cells measured after 48 hrs by sulforhodamine B assay; format: functional
SNB-75 = assay: Growth inhibition of human SNB-75 cells measured after 48 hrs by sulforhodamine B assay; format: functional
[2] = Growth inhibition of human HBC4 cells measured after 48 hrs by sulforhodamine B assay; format: functional
[3] = Growth inhibition of human HBC5 cells measured after 48 hrs by sulforhodamine B assay; format: functional
SF-539 = assay: Growth inhibition of human SF-539 cells measured after 48 hrs by sulforhodamine B assay; format: functional
NCI-H23 = assay: Growth inhibition of human NCI-H23 cells measured after 48 hrs by sulforhodamine B assay; format: functional
GCIY = assay: Antitumor activity against human GCIY cells xenografted in KSN/Slc nude mouse assessed as reduction in tumor size at 40 mg/kg, ip administered twice a week for 4 weeks starting from day 4 post inoculation by vernier caliper method; format: functional, organism-based
DU-145 = assay: Growth inhibition of human DU-145 cells measured after 48 hrs by sulforhodamine B assay; format: functional
U-251 = assay: Growth inhibition of human U-251 cells measured after 48 hrs by sulforhodamine B assay; format: functional
DMS-114 = assay: Growth inhibition of human DMS-114 cells measured after 48 hrs by sulforhodamine B assay; format: functional
MKN-45 = assay: Growth inhibition of human MKN-45 cells measured after 48 hrs by sulforhodamine B assay; format: functional
NCI-H522 = assay: Growth inhibition of human NCI-H522 cells measured after 48 hrs by sulforhodamine B assay; format: functional
SF-268 = assay: Growth inhibition of human SF-268 cells measured after 48 hrs by sulforhodamine B assay; format: functional
MDA-MB-231 = assay: Growth inhibition of human MDA-MB-231 cells measured after 48 hrs by sulforhodamine B assay; format: functional
MKN-1 = assay: Growth inhibition of human MKN-1 cells measured after 48 hrs by sulforhodamine B assay; format: functional
MKN-7 = assay: Growth inhibition of human MKN-7 cells measured after 48 hrs by sulforhodamine B assay; format: functional
OVCAR-3 = assay: Growth inhibition of human OVCAR-3 cells measured after 48 hrs by sulforhodamine B assay; format: functional
SK-OV-3 = assay: Growth inhibition of human SK-OV-3 cells measured after 48 hrs by sulforhodamine B assay; format: functional
A549 = assay: Growth inhibition of human A549 cells measured after 48 hrs by sulforhodamine B assay; format: functional
OVCAR-8 = assay: Growth inhibition of human OVCAR-8 cells measured after 48 hrs by sulforhodamine B assay; format: functional
HCT-116 = assay: Growth inhibition of human HCT-116 cells measured after 48 hrs by sulforhodamine B assay; format: functional
HCC 2998 = assay: Growth inhibition of human HCC 2998 cells measured after 48 hrs by sulforhodamine B assay; format: functional
[4] = Toxicity in KSN/Slc nude mouse xenografted with human GCIY cells assessed as effect on body weight at 40 mg/kg, ip administered twice a week for 4 weeks starting from day 4 post inoculation; format: organism-based; conditions: in vivo, 672 h
MKN-74 = assay: Growth inhibition of human MKN-74 cells measured after 48 hrs by sulforhodamine B assay; format: functional
DMS-273 = assay: Growth inhibition of human DMS-273 cells measured after 48 hrs by sulforhodamine B assay; format: functional
St-4 = assay: Growth inhibition of human St-4 cells measured after 48 hrs by sulforhodamine B assay; format: functional
HCT-15 = assay: Growth inhibition of human HCT-15 cells measured after 48 hrs by sulforhodamine B assay; format: functional
MCF7 = assay: Growth inhibition of human MCF7 cells measured after 48 hrs by sulforhodamine B assay; format: functional
OVCAR-4 = assay: Growth inhibition of human OVCAR-4 cells measured after 48 hrs by sulforhodamine B assay; format: functional
RXF 631 = assay: Growth inhibition of human RXF 631 cells measured after 48 hrs by sulforhodamine B assay; format: functional
KM12 = assay: Growth inhibition of human KM12 cells measured after 48 hrs by sulforhodamine B assay; format: functional
NCI-H226 = assay: Growth inhibition of human NCI-H226 cells measured after 48 hrs by sulforhodamine B assay; format: functional
OVCAR-5 = assay: Growth inhibition of human OVCAR-5 cells measured after 48 hrs by sulforhodamine B assay; format: functional
LOX IMVI = assay: Growth inhibition of human LOX IMVI cells measured after 48 hrs by sulforhodamine B assay; format: functional
HT-29 = assay: Growth inhibition of human HT-29 cells measured after 48 hrs by sulforhodamine B assay; format: functional
[5] = target: DNA topoisomerase 2-alpha (Homo sapiens) (UniProt P11388); assay: Inhibition of human DNA topoisomerase 2alpha assessed as stabilization of DNA cleavage complex at 50 to 200 uM using supercoiled pSL1180 plasmid DNA as substrate measured after 30 mins by ethidium bromide staining-based UV imaging analysis; conditions: dose 50-200 µM
DNA topoisomerase 2-alpha (Homo sapiens), sequence (P11388 whole entry): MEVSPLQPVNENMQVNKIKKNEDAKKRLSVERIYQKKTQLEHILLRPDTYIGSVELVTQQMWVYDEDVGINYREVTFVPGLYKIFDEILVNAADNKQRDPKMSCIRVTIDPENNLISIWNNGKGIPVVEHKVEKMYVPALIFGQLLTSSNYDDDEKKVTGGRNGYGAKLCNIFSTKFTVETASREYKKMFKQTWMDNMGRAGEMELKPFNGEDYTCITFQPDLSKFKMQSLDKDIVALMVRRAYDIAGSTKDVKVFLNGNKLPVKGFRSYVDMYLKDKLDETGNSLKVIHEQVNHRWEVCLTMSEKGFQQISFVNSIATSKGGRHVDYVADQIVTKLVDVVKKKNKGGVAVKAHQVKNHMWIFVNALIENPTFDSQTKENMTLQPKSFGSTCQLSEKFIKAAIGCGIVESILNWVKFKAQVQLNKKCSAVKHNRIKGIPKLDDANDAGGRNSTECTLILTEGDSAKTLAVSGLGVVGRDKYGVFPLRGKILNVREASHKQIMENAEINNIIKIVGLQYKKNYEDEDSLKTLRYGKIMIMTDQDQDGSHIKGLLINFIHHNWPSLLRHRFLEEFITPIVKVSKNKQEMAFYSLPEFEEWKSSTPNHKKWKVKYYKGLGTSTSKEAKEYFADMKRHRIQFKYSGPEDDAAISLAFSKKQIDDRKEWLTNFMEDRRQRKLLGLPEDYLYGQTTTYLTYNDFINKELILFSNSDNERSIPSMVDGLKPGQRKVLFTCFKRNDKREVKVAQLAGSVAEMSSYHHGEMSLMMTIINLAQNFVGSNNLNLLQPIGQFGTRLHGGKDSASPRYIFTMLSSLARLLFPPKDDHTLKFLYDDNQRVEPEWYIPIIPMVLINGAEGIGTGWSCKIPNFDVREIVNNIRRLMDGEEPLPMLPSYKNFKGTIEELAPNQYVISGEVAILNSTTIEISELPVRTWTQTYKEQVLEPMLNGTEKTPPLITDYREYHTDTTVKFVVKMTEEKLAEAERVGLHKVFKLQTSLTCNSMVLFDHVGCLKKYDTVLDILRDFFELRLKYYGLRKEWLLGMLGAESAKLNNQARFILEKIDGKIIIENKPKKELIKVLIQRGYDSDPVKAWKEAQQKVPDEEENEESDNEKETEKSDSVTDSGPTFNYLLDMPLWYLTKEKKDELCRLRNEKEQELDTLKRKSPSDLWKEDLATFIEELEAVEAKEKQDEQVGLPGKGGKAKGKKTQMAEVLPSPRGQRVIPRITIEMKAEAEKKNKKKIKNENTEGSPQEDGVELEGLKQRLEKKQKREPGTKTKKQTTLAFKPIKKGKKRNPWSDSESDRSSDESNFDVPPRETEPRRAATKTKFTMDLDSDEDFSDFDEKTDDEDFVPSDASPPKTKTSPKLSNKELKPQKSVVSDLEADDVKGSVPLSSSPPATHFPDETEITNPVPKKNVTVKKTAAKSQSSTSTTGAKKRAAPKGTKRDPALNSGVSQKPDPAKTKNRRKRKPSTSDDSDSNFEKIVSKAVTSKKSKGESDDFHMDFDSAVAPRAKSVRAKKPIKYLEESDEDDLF

## CC(C)(O)[C@H]1Cc2c(cc(O)c3c(=O)c(-c4ccc(O)cc4)coc23)O1
NCI-H460
  GI50: > 100 µM
SNB-78
  GI50: > 100 µM
[1]
  GI50: > 100 µM
PC-3
  GI50: 91.2 µM
ACHN
  GI50: > 100 µM
SF-295
  GI50: 52.5 µM
MKN-28
  GI50: > 100 µM
SNB-75
  GI50: 16.6 µM
[2]
  GI50: > 100 µM
[3]
  GI50: > 100 µM
SF-539
  GI50: 53.7 µM
NCI-H23
  GI50: > 100 µM
GCIY
  Activity: inactive
DU-145
  GI50: > 100 µM
U-251
  GI50: > 100 µM
DMS-114
  GI50: > 100 µM
MKN-45
  GI50: > 100 µM
NCI-H522
  GI50: 47.9 µM
SF-268
  GI50: > 100 µM
MDA-MB-231
  GI50: 45.7 µM
MKN-1
  GI50: > 100 µM
MKN-7
  GI50: > 100 µM
OVCAR-3
  GI50: > 100 µM
SK-OV-3
  GI50: 26.9 µM
A549
  GI50: > 100 µM
OVCAR-8
  GI50: > 100 µM
HCT-116
  GI50: > 100 µM
HCC 2998
  GI50: > 100 µM
[4]
  Activity: Non-Toxic
MKN-74
  GI50: > 100 µM
DMS-273
  GI50: > 100 µM
St-4
  GI50: > 100 µM
HCT-15
  GI50: > 100 µM
MCF7
  GI50: 89.1 µM
OVCAR-4
  GI50: > 100 µM
RXF 631
  GI50: 85.1 µM
KM12
  GI50: > 100 µM
NCI-H226
  GI50: > 100 µM
OVCAR-5
  GI50: > 100 µM
LOX IMVI
  GI50: > 100 µM
HT-29
  GI50: > 100 µM

## COc1cc([C@@H]2c3cc4c(cc3[C@@H](O[C@@H]3O[C@@H]5CO[C@@H](C)O[C@H]5[C@H](O)[C@H]3O)[C@H]3COC(=O)[C@H]23)OCO4)cc(OC)c1O [ETOPOSIDE]
NCI-H460
  GI50: 1.15 µM
SNB-78
  GI50: 44.7 µM
[1]
  GI50: 5.37 µM
PC-3
  GI50: > 100 µM
ACHN
  GI50: 2.09 µM
SF-295
  GI50: 2.75 µM
MKN-28
  GI50: 21.4 µM
SNB-75
  GI50: 6.92 µM
[2]
  GI50: 16.6 µM
[3]
  GI50: 51.3 µM
SF-539
  GI50: 1.86 µM
NCI-H23
  GI50: 4.07 µM
[5]
  inhibition: Active
DU-145
  GI50: 2.82 µM
U-251
  GI50: 2.34 µM
DMS-114
  GI50: 2.88 µM
MKN-45
  GI50: 7.94 µM
NCI-H522
  GI50: 4.68 µM
SF-268
  GI50: 5.37 µM
MDA-MB-231
  GI50: 21.4 µM
MKN-1
  GI50: 2.14 µM
MKN-7
  GI50: 25.7 µM
OVCAR-3
  GI50: 23.4 µM
SK-OV-3
  GI50: 3.98 µM
A549
  GI50: 2 µM
OVCAR-8
  GI50: 6.76 µM
HCT-116
  GI50: 14.8 µM
HCC 2998
  GI50: 5.62 µM
MKN-74
  GI50: 49 µM
DMS-273
  GI50: 1.74 µM
St-4
  GI50: 20.9 µM
HCT-15
  GI50: 16.2 µM
MCF7
  GI50: 2.24 µM
OVCAR-4
  GI50: 38.9 µM
RXF 631
  GI50: 12.3 µM
KM12
  GI50: 14.1 µM
NCI-H226
  GI50: 4.9 µM
OVCAR-5
  GI50: 19.5 µM
LOX IMVI
  GI50: 3.47 µM
HT-29
  GI50: 22.9 µM

## O=c1c(-c2ccc(O)cc2)coc2cc(O)cc(O)c12 [GENISTEIN]
NCI-H460
  GI50: 26.3 µM
SNB-78
  GI50: 38.9 µM
[1]
  GI50: 43.7 µM
ACHN
  GI50: 19.5 µM
SF-295
  GI50: 28.8 µM
MKN-28
  GI50: 39.8 µM
SNB-75
  GI50: 15.8 µM
[2]
  GI50: 43.7 µM
[3]
  GI50: 26.9 µM
SF-539
  GI50: 26.3 µM
NCI-H23
  GI50: 36.3 µM
U-251
  GI50: 42.7 µM
DMS-114
  GI50: 49 µM
MKN-45
  GI50: 32.4 µM
NCI-H522
  GI50: 17.8 µM
SF-268
  GI50: 30.2 µM
MDA-MB-231
  GI50: 37.2 µM
MKN-1
  GI50: 25.1 µM
MKN-7
  GI50: 30.2 µM
OVCAR-3
  GI50: 31.6 µM
SK-OV-3
  GI50: 89.1 µM
A549
  GI50: 26.3 µM
OVCAR-8
  GI50: 35.5 µM
HCT-116
  GI50: 25.1 µM
HCC 2998
  GI50: 45.7 µM
MKN-74
  GI50: 36.3 µM
DMS-273
  GI50: 21.9 µM
St-4
  GI50: 46.8 µM
HCT-15
  GI50: 30.2 µM
MCF7
  GI50: 42.7 µM
OVCAR-4
  GI50: 43.7 µM
RXF 631
  GI50: 40.7 µM
KM12
  GI50: 50.1 µM
NCI-H226
  GI50: 27.5 µM
OVCAR-5
  GI50: 50.1 µM
LOX IMVI
  GI50: 18.2 µM
HT-29
  GI50: 53.7 µM

## O=c1[nH]cc(F)c(=O)[nH]1 [FLUOROURACIL]
GCIY
  Activity: Active
[4]
  Activity: Non-Toxic
